#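 Cultured in 96-well plates, cells were exposed to test compound for 48 hours across five concentrations. At the GI50, growth is halved. At the TGI there is no net growth.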
# Assays:
# Test in all cases: NCI-60 cell line screen, 48 h
# PC-3 prostate = system: PC-3 prostate
# SNB-19 CNS = system: SNB-19 CNS
# SNB-75 CNS = system: SNB-75 CNS
# DU-145 prostate = system: DU-145 prostate
# TK-10 renal = system: TK-10 renal
# HOP-62 NSCLC = system: HOP-62 NSCLC
# NCI-H23 lung = system: NCI-H23 lung
# M14 melanoma = system: M14 melanoma
# OVCAR-3 ovarian = system: OVCAR-3 ovarian
# ACHN renal = system: ACHN renal
# K-562 leukemia = system: K-562 leukemia
# COLO 205 colon = system: COLO 205 colon
# OVCAR-8 ovarian = system: OVCAR-8 ovarian
# SK-MEL-2 melanoma = system: SK-MEL-2 melanoma
# HCT-116 colon = system: HCT-116 colon
# CCRF-CEM leukemia = system: CCRF-CEM leukemia
# SF-268 CNS = system: SF-268 CNS
# SR leukemia = system: SR leukemia
# SN12C renal = system: SN12C renal
# NCI/ADR-RES ovarian = system: NCI/ADR-RES ovarian
# SK-MEL-5 melanoma = system: SK-MEL-5 melanoma
# IGROV1 ovarian = system: IGROV1 ovarian
# A549 NSCLC = system: A549 NSCLC
# MDA-MB-435 = system: MDA-MB-435
# EKVX NSCLC = system: EKVX NSCLC
# NCI-H460 lung = system: NCI-H460 lung
# A498 renal = system: A498 renal
# BT-549 breast = system: BT-549 breast
# HT29 colon = system: HT29 colon
# HOP-92 NSCLC = system: HOP-92 NSCLC
# UO-31 renal = system: UO-31 renal
# MDA-MB-231 breast = system: MDA-MB-231 breast
# OVCAR-4 ovarian = system: OVCAR-4 ovarian
# HS 578T breast = system: HS 578T breast
# LOX IMVI melanoma = system: LOX IMVI melanoma
# SF-295 CNS = system: SF-295 CNS
# UACC-62 melanoma = system: UACC-62 melanoma
# HCC-2998 colon = system: HCC-2998 colon
# RPMI-8226 leukemia = system: RPMI-8226 leukemia
# T-47D breast = system: T-47D breast
# MCF7 breast = system: MCF7 breast
# RXF 393 renal = system: RXF 393 renal
# SK-MEL-28 melanoma = system: SK-MEL-28 melanoma
# NCI-H226 lung = system: NCI-H226 lung
# KM12 colon = system: KM12 colon
# U251 CNS = system: U251 CNS
# MOLT-4 leukemia = system: MOLT-4 leukemia
# SK-OV-3 ovarian = system: SK-OV-3 ovarian
# HCT-15 colon = system: HCT-15 colon
# SF-539 CNS = system: SF-539 CNS
# SW-620 colon = system: SW-620 colon
# OVCAR-5 ovarian = system: OVCAR-5 ovarian
# UACC-257 melanoma = system: UACC-257 melanoma
# NCI-H522 lung = system: NCI-H522 lung
# CAKI-1 renal = system: CAKI-1 renal
# 786-0 renal = system: 786-0 renal
smiles,measurement,setting,value
N#Cc1c(N/N=C/c2c(Cl)cccc2Cl)nc(N)nc1N1CCOCC1,GI50,PC-3 prostate,3.91 µM
same,TGI,PC-3 prostate,95.8 µM
same,GI50,SNB-19 CNS,34.5 µM
same,TGI,SNB-19 CNS,> 100 µM
same,GI50,SNB-75 CNS,35.5 µM
same,TGI,SNB-75 CNS,> 100 µM
same,GI50,DU-145 prostate,16 µM
same,TGI,DU-145 prostate,> 100 µM
same,GI50,TK-10 renal,20.8 µM
same,TGI,TK-10 renal,92 µM
same,GI50,HOP-62 NSCLC,13.9 µM
same,TGI,HOP-62 NSCLC,> 100 µM
same,GI50,NCI-H23 lung,44.5 µM
same,TGI,NCI-H23 lung,> 100 µM
same,GI50,M14 melanoma,6.79 µM
same,TGI,M14 melanoma,38.7 µM
same,GI50,OVCAR-3 ovarian,3.6 µM
same,TGI,OVCAR-3 ovarian,> 100 µM
same,GI50,ACHN renal,5.48 µM
same,TGI,ACHN renal,> 100 µM
same,GI50,K-562 leukemia,2.34 µM
same,TGI,K-562 leukemia,11.3 µM
same,GI50,COLO 205 colon,14.9 µM
same,TGI,COLO 205 colon,> 100 µM
same,GI50,OVCAR-8 ovarian,60.6 µM
same,TGI,OVCAR-8 ovarian,> 100 µM
same,GI50,SK-MEL-2 melanoma,8.3 µM
same,TGI,SK-MEL-2 melanoma,81.8 µM
same,GI50,HCT-116 colon,4.72 µM
same,TGI,HCT-116 colon,31.3 µM
same,GI50,CCRF-CEM leukemia,6.27 µM
same,TGI,CCRF-CEM leukemia,> 100 µM
same,GI50,SF-268 CNS,16.5 µM
same,TGI,SF-268 CNS,> 100 µM
same,GI50,SR leukemia,1.1 µM
same,TGI,SR leukemia,3.18 µM
same,GI50,SN12C renal,16.8 µM
same,TGI,SN12C renal,85.7 µM
same,GI50,NCI/ADR-RES ovarian,9.98 µM
same,TGI,NCI/ADR-RES ovarian,64.6 µM
same,GI50,SK-MEL-5 melanoma,3.71 µM
same,TGI,SK-MEL-5 melanoma,24 µM
same,GI50,IGROV1 ovarian,3.95 µM
same,TGI,IGROV1 ovarian,34.6 µM
same,GI50,A549 NSCLC,19.1 µM
same,TGI,A549 NSCLC,> 100 µM
same,GI50,MDA-MB-435,3.26 µM
same,TGI,MDA-MB-435,36 µM
same,GI50,EKVX NSCLC,54.1 µM
same,TGI,EKVX NSCLC,> 100 µM
same,GI50,NCI-H460 lung,5.32 µM
same,TGI,NCI-H460 lung,> 100 µM
same,GI50,A498 renal,2.67 µM
same,TGI,A498 renal,15.5 µM
same,GI50,BT-549 breast,18 µM
same,TGI,BT-549 breast,> 100 µM
same,GI50,HT29 colon,19.4 µM
same,TGI,HT29 colon,> 100 µM
same,GI50,HOP-92 NSCLC,12.4 µM
same,TGI,HOP-92 NSCLC,> 100 µM
same,GI50,UO-31 renal,14.5 µM
same,TGI,UO-31 renal,86.4 µM
same,GI50,MDA-MB-231 breast,11.7 µM
same,TGI,MDA-MB-231 breast,56.1 µM
same,GI50,OVCAR-4 ovarian,> 100 µM
same,TGI,OVCAR-4 ovarian,> 100 µM
same,GI50,HS 578T breast,13.3 µM
same,TGI,HS 578T breast,82.1 µM
same,GI50,LOX IMVI melanoma,8.97 µM
same,TGI,LOX IMVI melanoma,> 100 µM
same,GI50,SF-295 CNS,4.69 µM
same,TGI,SF-295 CNS,> 100 µM
same,GI50,UACC-62 melanoma,3.7 µM
same,TGI,UACC-62 melanoma,31.4 µM
same,GI50,HCC-2998 colon,3.96 µM
same,TGI,HCC-2998 colon,12.8 µM
same,GI50,RPMI-8226 leukemia,3.86 µM
same,TGI,RPMI-8226 leukemia,26.2 µM
same,GI50,T-47D breast,48 µM
same,TGI,T-47D breast,> 100 µM
same,GI50,MCF7 breast,3.18 µM
same,TGI,MCF7 breast,> 100 µM
same,GI50,RXF 393 renal,16.6 µM
same,TGI,RXF 393 renal,94.2 µM
same,GI50,SK-MEL-28 melanoma,82.1 µM
same,TGI,SK-MEL-28 melanoma,> 100 µM
same,GI50,NCI-H226 lung,24.5 µM
same,TGI,NCI-H226 lung,> 100 µM
same,GI50,KM12 colon,4.06 µM
same,TGI,KM12 colon,71.7 µM
same,GI50,U251 CNS,15.6 µM
same,TGI,U251 CNS,> 100 µM
same,GI50,MOLT-4 leukemia,4.08 µM
same,TGI,MOLT-4 leukemia,40.6 µM
same,GI50,SK-OV-3 ovarian,20.2 µM
same,TGI,SK-OV-3 ovarian,> 100 µM
same,GI50,HCT-15 colon,4.52 µM
same,TGI,HCT-15 colon,57.4 µM
same,GI50,SF-539 CNS,7.24 µM
same,TGI,SF-539 CNS,30.4 µM
same,GI50,SW-620 colon,6.11 µM
same,TGI,SW-620 colon,> 100 µM
same,GI50,OVCAR-5 ovarian,43.4 µM
same,TGI,OVCAR-5 ovarian,> 100 µM
same,GI50,UACC-257 melanoma,6.77 µM
same,TGI,UACC-257 melanoma,> 100 µM
same,GI50,NCI-H522 lung,4.35 µM
same,TGI,NCI-H522 lung,27.3 µM
same,GI50,CAKI-1 renal,12.1 µM
same,TGI,CAKI-1 renal,> 100 µM
same,GI50,786-0 renal,5.82 µM
same,TGI,786-0 renal,> 100 µM
